Measurements: patent US12617783B2, “Heterocyclic GLP-1R agonists” (BIOMEA FUSION, INC., priority 2024, dated 2026)
Entries after “also recorded” stand apart in the source; their conditions may differ. Like-named read-outs stand apart in the source and are kept apart here.

How the values were obtained:
[1] = test system: ex-vivo cultured islets from a T2D donor; assay: Glucose-Stimulated Insulin Secretion (GSIS) assay, islets from a T2D donor; type: cell-based
Protocol: (§1) Glucose-Stimulated Insulin Secretion (GSIS) Assay
(§2) Purified islets from healthy or Type 2 diabetic donors (Prodo Laboratory, Inc., Aliso Viejo, CA) were cultured in PIM(S) media (Prodo) with 8 mM or 11 mM glucose in a 37° C. water-jacketed incubator with 5% CO2. The GSIS assay followed published procedure (Zhu et al. 2015; Ho et al. 2023). Briefly, islets were conditioned in Krebs-Ringer bicarbonate buffer (KRB, 111 mM NaCl, 4.8 mM KCl, 25 mM NaHCO3, 2.3 mM CaCl2, 1.2 mM MgSO4, 0.15 mM Na2HPO4, 1.2 mM KH2PO4, 10 mM HEPES, 0.2% BSA) containing 2.8 mM glucose for 2 hours with 0.05% DMSO, compound 36 or orforglipron. Size-matched islets were used for each test condition. Islets were washed with KRB once and incubated in fresh KRB containing 2.8 mM glucose with 0.05% DMSO or corresponding compound for one hour to measure the basal insulin secretion in 2.8 mM glucose. Glucose concentration was increased to 11 mM and islets stimulated for one hour in the presence of 0.05% DMSO or corresponding compound to measure stimulated insulin secretion. Supernatants were harvested and insulin secreted under basal and glucose stimulated conditions were quantified using an ELISA kit (ALPCO, Salem, NH). Islets were lysed and genomic DNA was extracted using silicon spin column (Qiagen, Venlo, Netherlands). Insulin secretion was normalized to total genomic DNA.
Insulin secretion index is the ratio of stimulated insulin secretion at 11 mM glucose/basal insulin secretion at 2.8 mM glucose. […] (Ho, K. H., A. Jayathilake, Y. Mahircan, A. Nour, A. B. Osipovich, M. A. Magnuson, G. Gu, and I. Kaverina. 2023. CAMSAP2 localizes to the Golgi in islet beta-cells and facilitates Golgi-ER trafficking, iScience, 26:105938.Zhu X., R. Hu, M. Brissova, R. W. Stein, A. C. Powers, G. Gu, and I. Kaverina. 2015. Microtubules Negatively Regulate Insulin Secretion in Pancreatic beta Cells, Dev Cell, 34:656-68).

[2] = cynomolgus monkey, in vivo
Protocol: (§3) Pharmacokinetic Analysis of the Compound 36, Compound 121, Compound 214, and Orforglipron in Cynomolgus Monkeys
(§4) Non naïve male cynomolgus monkeys (n=3 monkeys/group) were fasted overnight and fed 4 hours post dose. Compounds of the present application were formulated in 10% polyethylene glycol 400/10% propylene glycol/80% glycine buffer (100 mM glycine, 64 mM NaOH, pH 10).
(§5) The compound was administered by i.v. infusion for 30 minutes at 0.12 mg/kg (dose volume 1 mL/kg at a speed of 2 mL/kg/h) or orally doses of 0.36 mg/kg. Blood samples were collected pre-dose and 0.25, 0.5 (just before the infusion is stopped), 0.75, 1, 1.5, 2.5, 4, 8, 16, 24 hr post dose for i.v. administration group. Blood samples were also collected pre-dose, 0.5, 1, 2, 3, 4, 8, 16 and 24 hr after administration in orally dosing group.

[3] = target: T1, human GLP-1R (Homo sapiens, UniProt P43220); assay: GLP-1R cAMP assay (Example B1a, HTRF, 30 min at room temperature); type: cell-based
T1 construct: host or cells: HEK293
T1 sequence (P43220 24-463): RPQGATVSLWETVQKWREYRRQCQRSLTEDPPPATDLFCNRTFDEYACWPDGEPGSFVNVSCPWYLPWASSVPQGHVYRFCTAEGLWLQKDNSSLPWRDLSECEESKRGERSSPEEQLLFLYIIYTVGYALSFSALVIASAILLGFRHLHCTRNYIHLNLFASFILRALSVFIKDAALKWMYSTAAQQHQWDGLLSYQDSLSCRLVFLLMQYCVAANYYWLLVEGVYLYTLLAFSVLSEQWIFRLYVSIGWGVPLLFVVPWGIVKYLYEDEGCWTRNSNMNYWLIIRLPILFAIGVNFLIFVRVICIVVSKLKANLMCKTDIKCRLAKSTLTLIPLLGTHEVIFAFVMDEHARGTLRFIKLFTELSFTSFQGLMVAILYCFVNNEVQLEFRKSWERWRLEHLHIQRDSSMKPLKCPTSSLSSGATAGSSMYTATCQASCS
How it was run: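 Competitive HTRF read-out of cAMP after 30 min room-temperature stimulation, BETP absent, of human GLP-1R-HEK293 cells (1,000/well) in HEPES buffer with 500 μM IBMX and 0.1% BSA. Activation normalised to GLP-1(7-37) positive control. EC50 from 4-parameter non-linear regression.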

[4] = test system: ex-vivo cultured islets from a healthy donor; assay: Glucose-Stimulated Insulin Secretion (GSIS) assay, islets from a healthy donor; type: cell-based; conditions: compared to DMSO, FIG. 2
Protocol: as §1
as §2, with “DNA. […]” for “DNA.”

[5] = test system: Type 2 diabetic donor islets; assay: Glucose-stimulated insulin secretion (GSIS) in Type 2 diabetic donor islets cultured ex vivo; type: cell-based; conditions: islets cultured ex vivo for 8 days (FIG. 1A) or 12 days (FIG. 1B); compared with orforglipron or DMSO
Protocol: Islets from a Type 2 diabetic donor were cultured ex vivo for 8 days (FIG. 1A) or 12 days (FIG. 1B) were assayed for GSIS in the presence of compound 36 (cpd 36), orforglipron or DMSO. Basal insulin secretion, stimulated insulin secretion and secretion index were measured.

[6] = Pharmacokinetic analysis in male SD rats; type: in vivo
Protocol: The rats have free access to food and water. Blood samples were collected pre-dose and 0.083, 0.25, 0.5, 1, 2, 4, 8, 24 hours post dose for i.v. administration group. Blood samples were also collected pre-dose and 0.25, 0.5, 1, 2, 4, 8, and 24 hours after administration in orally dosing group.

[7] = test system: islets from a non-diabetic donor; assay: Glucose-stimulated insulin secretion (GSIS) in non-diabetic donor islets cultured ex vivo; type: cell-based; conditions: compared with orforglipron or DMSO
Protocol: Donor islets cultured ex vivo were assayed for GSIS in the presence of compound 36 (cpd 36), orforglipron or DMSO. Basal insulin secretion, stimulated insulin secretion and secretion index were measured.
Donor islets cultured ex vivo were assayed for GSIS in the presence of compound 214, orforglipron or DMSO. Basal insulin secretion, stimulated insulin secretion and secretion index were measured.

[8] = in vivo; conditions: male, cynomolgus monkey
Protocol: as §3, §4, §5

[9] = Sprague-Dawley (SD), rat, plasma, 1.0 mg/kg iv
[10] = Sprague-Dawley (SD), rat, plasma, 5.0 mg/kg po

Compound: Cc1cc(-n2nc3c(c2-n2ccn(-c4ccc5c(cnn5C)c4F)c2=O)[C@@H]2CC[C@H](C3)N2C(=O)c2cc3cc([C@H]4CCOC(C)(C)C4)ccc3n2[C@@]2(c3noc(=O)[nH]3)C[C@@H]2C)cc(C)c1F [Compound 36, 3-((1S,2S)-1-(5-((S)-2,2-dimethyltetrahydro-2H-pyran-4-yl)-2-((4S,7R)-3-(3-(4-fluoro-1-methyl-1H-indazol-5-yl)-2-oxo-2,3-dihydro-1H-imidazol-1-yl)-2-(4-fluoro-3,5-dimethylphenyl)-2,4,5,6,7,8-hexahydro-4,7-epiminocyclohepta [c]pyrazole-9-carbonyl)-1H-indol-1-yl)-2-methylcyclopropyl)-1,2,4-oxadiazol-5(4H)-one]
- basal insulin secretion ([1]; 2.8 mM glucose, FIG. 1A): decreased
- stimulated insulin ([1]; 11 mM glucose, FIG. 1A): improved
- glucose-stimulated insulin secretion (GSIS) ([1]; FIG. 1): potentiated GSIS; also recorded: overall relatively better than orforglipron
- insulin secretion index ([1]; ratio of stimulated insulin secretion at 11 mM glucose/basal insulin secretion at 2.8 mM glucose, FIG. 1B): improved
- oral bioavailability compared with Orforglipron [2]: better oral bioavailability
- Oral F ([2]; male): 50.2%
- EC50 Ratio ([3]; Table 1d, potency ratio of stereoisomer pair (less potent / more potent isomer)): >94
- EC50 ([3]; Table 1d, stereoisomer pairs, read-out: EC50): 109 nM
- EC50 ([3]; cAMP accumulation in HEK293 expressing human GLP-1R, no BETP, 30 min room temperature (Method B1a, compounds ID 1-609), Table 1, read-out: EC50): 109 nM
- EC50 ([3]; text to Table 1d, bridge atoms configured into the plane or away from the reader, read-out: potency (EC50)): < 1000 nM
- insulin secretion upon glucose stimulation [4]: potentiated islets to secrete more insulin upon glucose stimulation compared to DMSO
- responsiveness of Type 2 diabetic donor islets to glucose stimulation (GSIS) [5]: increases the responsiveness of Type 2 diabetic donor islets to glucose stimulation
- Oral F ([6]; 5.0 mg/kg po vs 1.0 mg/kg iv): 29.6%
- AUC(0-inf) [6, 9]: 5050 ng·h/mL
- clearance [6, 9]: 3.33 mL/min/kg
- half-life [6, 9]: 5.04 h
- Vd ([6]; Sprague-Dawley (SD), rat, plasma, 1.0 mg/kg iv, read-out: Vdss): 1.09 L/kg
- AUC(0-inf) [6, 10]: 7480 ng·h/mL
- Cmax [6, 10]: 610 ng/mL
- Tmax [6, 10]: 3.33 h
- half-life [6, 10]: 4.93 h
- exposure compared with Orforglipron ([6]; same doses (iv 1 mg/kg and po 5 mg/kg)): significant higher exposure
- glucose-stimulated insulin secretion in islets from a non-diabetic donor [7]: increases glucose-stimulated insulin secretion
- AUC(0-inf) ([8]; iv, 0.12 mg/kg): 512 ng·h/mL
- Vd ([8]; iv, 0.12 mg/kg): 1.13 L/kg
- clearance ([8]; iv, 0.12 mg/kg): 3.98 mL/min/kg
- half-life ([8]; iv, 0.12 mg/kg): 4.55 h
- AUC(0-inf) ([8]; po, 0.36 mg/kg): 771 ng·h/mL
- Cmax ([8]; po, 0.36 mg/kg): 121 ng/mL
- Tmax ([8]; po, 0.36 mg/kg): 2 h
- half-life ([8]; po, 0.36 mg/kg): 4.22 h
